The conditions of data set [1]: alanylglutamine compared to glutamine; cited from earlier work.
For data set [2] the following is noted: cited from earlier work.
For data set [3], the system named is muscle fatigue. Description: Test Example 1: muscle fatigue status of healthy males consuming alanylglutamine continuously for 1 month. It is filed as in vivo, human. To be noted: for Muscle fatigue status: 1 month. As to the method: Twenty-six healthy males ages 21 to 60 consumed alanylglutamine (manufactured by Kyowa Hakko Co., Ltd.) continuously for 1 month, and the muscle fatigue status of the subjects was evaluated.

For data set [4] the following is noted: alanylglutamine compared to glutamine; cited from earlier work. The source holds these as a separate data set.

SMILES strings stand for the structures. Residues, ends and D or L forms follow the SMILES beside them.

As to `C[C@H](N)C(=O)N[C@@H](CCC(N)=O)C(=O)O` [alanylglutamine] (H-Ala-Gln-OH), in data set [1], the heat stability entry was “superior”. Besides, the “degradation in the body” value in data set [2] is “immediately degraded into alanine and glutamine”. In data set [3] (of the 15 listed subjects (26 in all), 1 month consumption), the “subjects with alleviation of muscle pain after exercise” value is 10 subjects. In addition, the “subjects in whom relief of muscle fatigue was observed” value in data set [3] (of the 26 subjects, 1 month consumption) came to 15 subjects. Also, the Muscle fatigue status result in data set [3] (subject 21 to 25 years, before going to bed, 2 g/administration) was “Disappearance of muscle pain”; in data set [3] (subject 26 to 30 years, after exercising, 1 g/administration), “Substantial relief of muscle pain”; in data set [3] (subject 26 to 30 years, before and after exercise, approximately 1 g/administration), “Reduction of muscle fatigue”; in data set [3] (subject 31 to 35 years, before exercise, 8 g/administration), “Feeling of damage relief”; in data set [3] (subject 31 to 35 years, morning and before going to bed, 0.6 g/administration), “Reduction of muscle pain after”; in data set [3] (subject 31 to 35 years, morning, 0.5 g/administration), “Lighter muscle pain after”. Besides, the Muscle fatigue status entry in data set [3] (subject 36 to 40 years, morning and evening, 0.5 g/administration) is “Reduction of muscle pain”; in data set [3] (subject 45 to 50 years, before going to bed, approximately 2.5 g/administration), “Reduction of stiff shoulders the”; in data set [3] (subject 46 to 50 years, after meals morning and evening, 1 g/administration), “Less fatigue and muscle pain”; in data set [3] (subject 51 to 55 years, before going to bed, approximately 0.5 g/administration), “Became less prone to fatigue”; in data set [3] (subject 51 to 55 years, every morning, 1 g/administration) it was “Alleviation of muscle pain after”; in data set [3] (subject 56 to 60 years, morning and evening, 0.5 g/administration) it was “Reduction of muscle pain”. The “solubility in aqueous solutions” value in data set [4] is “superior”.
